Test results: PubChem BioAssay AID248 (DTP/NCI, 2004)
Values joined by “and” are separate entries in the source; they are usually repeats but may differ in a detail not shown here. Identical values can stand only once. Toxic doses and inconclusive results are not listed.

Tested on: L1210 leukemia ip in BDF1 mice, survival T/C
Assay: NCI In Vivo Anticancer Drug Screen. Data for tumor model L1210 Leukemia (intraperitoneal) in B6D2F1 (BDF1) mice
Details: endpoint: mean survival time, higher = longer survival
Outline: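 Antitumor effect is assessed in tumor-bearing animals. Survival in the compound arm is compared with a vehicle-dosed control arm and expressed as their quotient.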

[1] = dose: 100.0 mg/kg/injection, schedule: Q04DX002 (ip), vehicle: saline with Tween-80
[2] = dose: 200.0 mg/kg/injection, schedule: Q04DX002 (ip), vehicle: saline with Tween-80

O=C(COc1ccccc1)NC(=S)Nc1ccc(F)c([N+](=O)[O-])c1 was tested, and the T/C (dose: 100.0 mg/kg/injection, schedule: Q01DX001 (ip), vehicle: saline with Tween-80) was 113 % of control, the T/C (dose: 100.0 mg/kg/injection, schedule: Q01DX009 (ip), vehicle: saline with Tween-80) was 100 % of control and 86 % of control and the T/C [1] was 94 % of control and 119 % of control. For the same compound, the T/C (dose: 200.0 mg/kg/injection, schedule: Q01DX001 (ip), vehicle: saline with Tween-80) was 98 % of control, the T/C (dose: 200.0 mg/kg/injection, schedule: Q01DX009 (ip), vehicle: saline with Tween-80) was 99 % of control and 116 % of control and the T/C [2] was 102 % of control and 103 % of control. The T/C (dose: 400.0 mg/kg/injection, schedule: Q01DX001 (ip), vehicle: saline with Tween-80) was 95 % of control, the T/C (dose: 400.0 mg/kg/injection, schedule: Q01DX009 (ip), vehicle: saline with Tween-80) was 102 % of control and the T/C (dose: 400.0 mg/kg/injection, schedule: Q04DX002 (ip), vehicle: saline with Tween-80) was 104 % of control and 87 % of control.

For CCC(=O)CCC1CCCCC1, the T/C (dose: 100.0 mg/kg/injection, schedule: Q01DX001 (ip), vehicle: saline) was 94 % of control, the T/C (dose: 200.0 mg/kg/injection, schedule: Q01DX001 (ip), vehicle: saline) was 100 % of control and the T/C (dose: 400.0 mg/kg/injection, schedule: Q01DX001 (ip), vehicle: saline) was 91 % of control.

For COc1ccc(NC(=O)N(CCCl)N=O)cc1OC, the T/C (dose: 0.5 mg/kg/injection, schedule: Q01DX009 (ip), vehicle: Klucel (hydroxypropylcellulose) (HPC)) was 115 % of control, the T/C (dose: 1.0 mg/kg/injection, schedule: Q01DX009 (ip), vehicle: Klucel (hydroxypropylcellulose) (HPC)) was 123 % of control and the T/C (dose: 1.2 mg/kg/injection, schedule: Q01DX009 (ip), vehicle: Klucel (hydroxypropylcellulose) (HPC)) was 115 % of control. The T/C (dose: 1.8 mg/kg/injection, schedule: Q01DX009 (ip), vehicle: Klucel (hydroxypropylcellulose) (HPC)) was 113 % of control, the T/C (dose: 2.5 mg/kg/injection, schedule: Q01DX001 (ip), vehicle: carboxymethylcellulose (CMC)) was 118 % of control and the T/C (dose: 4.0 mg/kg/injection, schedule: Q01DX009 (ip), vehicle: Klucel (hydroxypropylcellulose) (HPC)) was 151 % of control and 152 % of control (2×). For the same compound, the T/C (dose: 5.0 mg/kg/injection, schedule: Q01DX001 (ip), vehicle: carboxymethylcellulose (CMC)) was 118 % of control, the T/C (dose: 6.0 mg/kg/injection, schedule: Q01DX009 (ip), vehicle: Klucel (hydroxypropylcellulose) (HPC)) was 165 % of control and the T/C (dose: 6.6 mg/kg/injection, schedule: Q01DX009 (ip), vehicle: carboxymethylcellulose (CMC)) was 206 % of control. The T/C (dose: 9.0 mg/kg/injection, schedule: Q01DX009 (ip), vehicle: Klucel (hydroxypropylcellulose) (HPC)) was 220 % of control, the T/C (dose: 10.0 mg/kg/injection, schedule: Q01DX009 (ip), vehicle: carboxymethylcellulose (CMC)) was 123 % of control and the T/C (dose: 13.0 mg/kg/injection, schedule: Q01DX009 (ip), vehicle: Klucel (hydroxypropylcellulose) (HPC)) was 167 % of control and 190 % of control. The T/C (dose: 15.0 mg/kg/injection, schedule: Q01DX001 (ip), vehicle: carboxymethylcellulose (CMC)) was 168 % of control, the T/C (dose: 15.0 mg/kg/injection, schedule: Q01DX009 (ip), vehicle: carboxymethylcellulose (CMC)) was 106 % of control and the T/C (dose: 20.0 mg/kg/injection, schedule: Q01DX001 (ip), vehicle: other) was 227 % of control. For the same compound, the T/C (dose: 20.0 mg/kg/injection, schedule: Q01DX009 (ip), vehicle: Klucel (hydroxypropylcellulose) (HPC)) was 92 % of control, the T/C (dose: 30.0 mg/kg/injection, schedule: Q01DX001 (ip), vehicle: carboxymethylcellulose (CMC)) was 247 % of control and the T/C (dose: 30.0 mg/kg/injection, schedule: Q01DX001 (ip), vehicle: other) was 206 % of control. For the same compound, the T/C (dose: 45.0 mg/kg/injection, schedule: Q01DX001 (ip), vehicle: other) was 242 % of control and the T/C (dose: 60.0 mg/kg/injection, schedule: Q01DX001 (ip), vehicle: carboxymethylcellulose (CMC)) was 193 % of control.

Oc1ccc(CCCc2ccc3c(c2)OCO3)cc1 was tested, and the T/C [1] was 104 % of control and the T/C [2] was 104 % of control.

CC1C(C)(C)C1(Cl)Cl (stereo not given) was tested, and the T/C (dose: 50.0 mg/kg/injection, schedule: Q01DX009 (ip), vehicle: saline sonified) was 92 % of control, the T/C (dose: 100.0 mg/kg/injection, schedule: Q01DX009 (ip), vehicle: saline sonified) was 92 % of control and the T/C (dose: 200.0 mg/kg/injection, schedule: Q01DX009 (ip), vehicle: saline sonified) was 101 % of control.

In the case of Cc1ccc(S(=O)(=O)Oc2ccc(I)cc2)cc1, the T/C (dose: 100.0 mg/kg/injection, schedule: Q01DX009 (ip), vehicle: Klucel (hydroxypropylcellulose) (HPC)) is reported as 107 % of control, the T/C (dose: 100.0 mg/kg/injection, schedule: Q04DX003 (ip), vehicle: Klucel (hydroxypropylcellulose) (HPC)) is reported as 100 % of control and the T/C (dose: 200.0 mg/kg/injection, schedule: Q01DX009 (ip), vehicle: Klucel (hydroxypropylcellulose) (HPC)) is reported as 98 % of control. The T/C (dose: 200.0 mg/kg/injection, schedule: Q04DX003 (ip), vehicle: Klucel (hydroxypropylcellulose) (HPC)) was 105 % of control, the T/C (dose: 400.0 mg/kg/injection, schedule: Q01DX009 (ip), vehicle: Klucel (hydroxypropylcellulose) (HPC)) was 103 % of control and the T/C (dose: 400.0 mg/kg/injection, schedule: Q04DX003 (ip), vehicle: Klucel (hydroxypropylcellulose) (HPC)) was 97 % of control.

In the case of NC(N)=N/N=C/c1cc(Br)ccc1O, the T/C (dose: 75.0 mg/kg/injection, schedule: Q01DX001 (ip), vehicle: saline) is reported as 102 % of control and the T/C (dose: 150.0 mg/kg/injection, schedule: Q01DX001 (ip), vehicle: saline) is reported as 98 % of control.
